ChEMBL document CHEMBL1201862, “PubChem BioAssay data set” (2004)
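96-well plates; 48 h exposure; 5 concentrations. Endpoints by linear interpolation between flanking doses. Not reached: highest tested concentration assigned. GI50 = concentration required for 50% inhibition of growth.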 Active and inactive are the calls of the source. No stated cut-off is given here; in the data, active = GI50 up to about 1.1 µM and inactive = higher.

Key:
Experiment in all cases: inhibition of tumour cell growth, NCI panel, 48 h
Hs-578T = tested on: Hs-578T
RXF 393 = tested on: RXF 393
SN12C = tested on: SN12C
SW-620 = tested on: SW-620
HOP-62 = tested on: HOP-62
NCI-H460 = tested on: NCI-H460
KM12 = tested on: KM12
SF-295 = tested on: SF-295
DU-145 = tested on: DU-145
HCC 2998 = tested on: HCC 2998
LOX IMVI = tested on: LOX IMVI
OVCAR-3 = tested on: OVCAR-3
Malme-3M = tested on: Malme-3M
HCT-15 = tested on: HCT-15
A549 = tested on: A549
ACHN = tested on: ACHN
UACC-257 = tested on: UACC-257
OVCAR-5 = tested on: OVCAR-5
NCI-H226 = tested on: NCI-H226
OVCAR-8 = tested on: OVCAR-8

| Structure (SMILES) | GI50 (Hs-578T) | GI50 (RXF 393) | GI50 (SN12C) | GI50 (SW-620) | GI50 (HOP-62) | GI50 (NCI-H460) | GI50 (KM12) | GI50 (SF-295) | GI50 (DU-145) | GI50 (HCC 2998) | GI50 (LOX IMVI) | GI50 (OVCAR-3) | GI50 (Malme-3M) | GI50 (HCT-15) [µM] | GI50 (A549) | GI50 (ACHN) | GI50 (UACC-257) | GI50 (OVCAR-5) | GI50 (NCI-H226) | GI50 (OVCAR-8) |
| --- | --- | --- | --- | --- | --- | --- | --- | --- | --- | --- | --- | --- | --- | --- | --- | --- | --- | --- | --- | --- |
| COC(=O)CN1c2nc(C#N)c(C#N)nc2N(CC(=O)OC)c2nc(C#N)c(C#N)nc21 | 19.6 µM (inactive) | 2.91 µM (inactive) | 3.34 µM (inactive) | 1.76 µM (inactive) | 16.5 µM (inactive) | 22 µM (inactive) | 8.22 µM (inactive) | 19.5 µM (inactive) | 1.43 µM (inactive) | 16.7 µM (inactive) | 2.2 µM (inactive) | 2.92 µM (inactive) | 0.301 µM (active) | 3.05 | 12 µM (inactive) | 1.59 µM (inactive) | 2.72 µM (inactive) | 8 µM (inactive) | 38.8 µM (inactive) | 2.37 µM (inactive) |
| CC(=O)CC(=O)N1CCOC1=O | > 10 µM (inactive) | > 10 µM (inactive) | > 10 µM (inactive) | > 10 µM (inactive) | > 10 µM (inactive) | > 10 µM (inactive) | > 10 µM (inactive) | > 10 µM (inactive) | > 10 µM (inactive) | > 10 µM (inactive) | > 10 µM (inactive) | > 10 µM (inactive) | > 10 µM (inactive) | > 10 | > 10 µM (inactive) | > 10 µM (inactive) | > 10 µM (inactive) | > 10 µM (inactive) | > 10 µM (inactive) | > 10 µM (inactive) |
| N=C1N=C(N)c2cc3c(cc21)SCCSCCCSCCS3 | 10.1 µM (inactive) | 15.8 µM (inactive) | 14.6 µM (inactive) | 11.6 µM (inactive) | 13.6 µM (inactive) | 13.3 µM (inactive) | 11.9 µM (inactive) | 13.9 µM (inactive) | 31.6 µM (inactive) | 9.62 µM (inactive) | 4.38 µM (inactive) | 11.8 µM (inactive) | 20.5 µM (inactive) | 14.3 | 18.7 µM (inactive) | 12.9 µM (inactive) | 20.2 µM (inactive) | 18.4 µM (inactive) | 20.5 µM (inactive) | 18 µM (inactive) |
| O=C1c2ccccc2C(=O)c2c1oc(=O)c1ccccc21 | 6.43 µM (inactive) | 4.48 µM (inactive) | 3.49 µM (inactive) | 2.08 µM (inactive) | 8.13 µM (inactive) | 4.38 µM (inactive) | 5.51 µM (inactive) | 3.83 µM (inactive) | 5.46 µM (inactive) | 3.21 µM (inactive) | 3.65 µM (inactive) | 0.698 µM (active) | 2.63 µM (inactive) | 3.26 | 7.46 µM (inactive) | 4.59 µM (inactive) | 3.22 µM (inactive) | 6.03 µM (inactive) | 8.93 µM (inactive) | 2 µM (inactive) |
| O=C1C(Cl)=C(N2CCN(c3ncccn3)CC2)C(=O)c2c(O)ccc(O)c21 | 2.9 µM (inactive) | 1.78 µM (inactive) | 1.85 µM (inactive) | 1.36 µM (inactive) | 2.55 µM (inactive) | 15.3 µM (inactive) | 4.43 µM (inactive) | 12.4 µM (inactive) | 4.34 µM (inactive) | 10.8 µM (inactive) | 1.72 µM (inactive) | 1.72 µM (inactive) | 1.94 µM (inactive) | 1.59 | 7.16 µM (inactive) | 2.43 µM (inactive) | 1.84 µM (inactive) | 7.91 µM (inactive) | 21.8 µM (inactive) | 2.18 µM (inactive) |
| CCC(=O)Nc1cccc(/N=C/c2ccc(OC(=O)/C=C\c3ccccc3)cc2)c1 | 32.5 µM (inactive) | 12.2 µM (inactive) | > 75 µM (inactive) | > 75 µM (inactive) | > 75 µM (inactive) | 61.5 µM (inactive) | 49.2 µM (inactive) | 41.3 µM (inactive) | 15.5 µM (inactive) | 32.3 µM (inactive) | 40.6 µM (inactive) | 43.7 µM (inactive) | 40.4 µM (inactive) | 35.8 | 54 µM (inactive) | 39 µM (inactive) | > 75 µM (inactive) | > 75 µM (inactive) | 33.6 µM (inactive) | > 75 µM (inactive) |
| N=C(N)NS(=O)(=O)c1ccc(NC(=O)c2ccc3nc4ccccc4c(O)c3c2)cc1 | > 100 µM (inactive) | > 100 µM (inactive) | > 100 µM (inactive) | > 100 µM (inactive) | > 100 µM (inactive) | > 100 µM (inactive) | > 100 µM (inactive) | > 100 µM (inactive) | > 100 µM (inactive) | > 100 µM (inactive) | 49.7 µM (inactive) | > 100 µM (inactive) | > 100 µM (inactive) | > 100 | > 100 µM (inactive) | > 100 µM (inactive) | > 100 µM (inactive) | > 100 µM (inactive) | > 100 µM (inactive) | > 100 µM (inactive) |
| COc1ccc(C2=Nn3c(nc4sc5c(c4c3=O)CCCC5)SC2)cc1 | 70.6 µM (inactive) | > 100 µM (inactive) | > 100 µM (inactive) | > 100 µM (inactive) | 49.8 µM (inactive) | > 100 µM (inactive) | > 100 µM (inactive) | > 100 µM (inactive) | > 100 µM (inactive) | > 100 µM (inactive) | > 100 µM (inactive) | > 100 µM (inactive) | > 100 µM (inactive) | > 100 | > 100 µM (inactive) | > 100 µM (inactive) | > 100 µM (inactive) | > 100 µM (inactive) | > 100 µM (inactive) | > 100 µM (inactive) |
| Clc1cc2nc(C3CCCCO3)[nH]c2cc1Cl (stereo not given) | 7.29 µM (inactive) | 8.17 µM (inactive) | 38.9 µM (inactive) | 19.6 µM (inactive) | 64.7 µM (inactive) | 18.6 µM (inactive) | 10.6 µM (inactive) | 38.6 µM (inactive) | 48.6 µM (inactive) | 38 µM (inactive) | 20.3 µM (inactive) | 5.09 µM (inactive) | 38.5 µM (inactive) | 6.98 | 15.1 µM (inactive) | 54.8 µM (inactive) | 59.2 µM (inactive) | > 63.1 µM (inactive) | 86.7 µM (inactive) | 17.7 µM (inactive) |
| C[Si](C)(C)C1=C([Si](C)(C)C)C(Cl)(Cl)C1=O | 10.4 µM (inactive) | 1.9 µM (inactive) | 3.31 µM (inactive) | 2.27 µM (inactive) | 18.7 µM (inactive) | 12.4 µM (inactive) | 6.17 µM (inactive) | 9.1 µM (inactive) | 10.4 µM (inactive) | 8.36 µM (inactive) | 1.58 µM (inactive) | 2.18 µM (inactive) | 1.75 µM (inactive) | 1.92 | 19.8 µM (inactive) | 1.74 µM (inactive) | 2.05 µM (inactive) | 7.28 µM (inactive) | 3.13 µM (inactive) | 2.23 µM (inactive) |
| O=c1ccc2[n+]([O-])c3ccc(O)cc3oc-2c1 [RESAZURIN] | 7.53 µM (inactive) | 37 µM (inactive) | 18.2 µM (inactive) | 11.5 µM (inactive) | 18.7 µM (inactive) | 12.3 µM (inactive) | 5.19 µM (inactive) | 7.41 µM (inactive) | 15.9 µM (inactive) | 34.6 µM (inactive) | 3.44 µM (inactive) | 13.2 µM (inactive) | 4.02 µM (inactive) | 5.15 | 4.31 µM (inactive) | 5.65 µM (inactive) | 11.2 µM (inactive) | 23.6 µM (inactive) | 21.1 µM (inactive) | 15 µM (inactive) |
